| Compound | melting point [°C] |
| --- | --- |
| Cc1cc(Br)c([N+](=O)[O-])c(Br)n1 [Example 1, 2,4-dibromo-6-methyl-3-nitropyridine] | 118 to 120 |
| Cc1cc(Br)c(N)c(Br)n1 [Example 2, 3-amino-2,4-dibromo-6-methylpyridine] | 93 to 94 |
| Cc1cc(Br)c(NC(=O)CBr)c(Br)n1 [Example 3, N-[2,4-dibromo-6-methylpyridin-3-yl]-2-bromoacetamide] | 197 to 199 |
| Cc1cc(Cl)c(NC(=O)CBr)c(Cl)n1 [Example 5, N-[2,4-dichloro-6-methylpyridin-3-yl]-2-bromoacetamide] | 184 to 185 |
| CSc1cc(C)nc(SC)c1NC(=O)CN1CCN(CCO)CC1 [Example 7, 2-[4-(2-hydroxyethyl)piperazin-1-yl]-N-[2,4-bis(methylthio)-6-methylpyridin-3-yl]acetamide] | 119 to 120 |

— patent publication US7560547B2, “Hydroxyalkyl cyclic diamine compounds” (Kowa Co., Ltd., priority 2002, dated 2009)
